Measured values published in PubChem BioAssay (NCI).
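Grown in 96-well plates, cells were treated for 48 hours with each compound at five concentrations. Insufficient inhibition: endpoint recorded as highest concentration tested. Abbreviation: GI50, concentration required for 50% inhibition of growth. TGI: concentration producing complete growth inhibition.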

What was measured:
Experiment in all cases: inhibition of tumour cell growth, NCI panel, 48 h
[1] = system: A498 renal
[2] = system: DU-145 prostate
[3] = system: IGROV1 ovarian
[4] = system: OVCAR-4 ovarian
[5] = system: SK-MEL-5 melanoma
[6] = system: SK-OV-3 ovarian
[7] = system: SW-620 colon
[8] = system: UACC-257 melanoma
[9] = system: UACC-62 melanoma
[10] = system: NCI/ADR-RES ovarian

Structure (SMILES): CC1CCC2(OC1)OC1CC3C4CC=C5CC(OC6OC(CO)C(OC7OC(C)C(OC8OC(C)C(O)C(O)C8O)C(O)C7O)C(O)C6OC6OC(C)C(O)C(O)C6O)CCC5(C)C4CCC3(C)C1C2C (stereo not drawn)
- TGI [1]: 1.55 µM
- TGI [2]: 2.54 µM
- TGI [3]: 2.59 µM
- TGI [4]: 1.33 µM
- TGI [5]: 3.06 µM
- TGI [6]: 2.31 µM
- TGI [7]: 2.89 µM
- TGI [8]: 2.02 µM
- TGI [9]: 1.51 µM

Structure (SMILES): CCCCCCCCCCCCCCCCC(C(=O)O)C(O)(CC(=O)O)C(=O)O (stereo not drawn)
- TGI [1]: 47.6 µM
- TGI [2]: > 100 µM
- TGI [3]: 46.4 µM
- TGI [10]: > 100 µM
- TGI [5]: > 100 µM
- TGI [6]: 36.1 µM
- TGI [7]: 46.6 µM
- TGI [8]: > 100 µM
- TGI [9]: 48.9 µM

Structure (SMILES): CC(=O)/C=C1/c2ccccc2N(C(C)=O)C1O (stereo not drawn)
- TGI [1]: > 100 µM
- TGI [3]: > 100 µM
- TGI [4]: > 100 µM
- TGI [6]: > 100 µM
- TGI [7]: > 100 µM
- TGI [8]: > 100 µM
- TGI [9]: > 100 µM

Structure (SMILES): CC1C(=O)N=C2C(=CN(Cc3ccccc3)c3ccccc32)C(=O)N1C (stereo not drawn)
- TGI [1]: > 100 µM
- TGI [2]: > 100 µM
- TGI [3]: > 100 µM
- TGI [10]: > 100 µM
- TGI [4]: > 100 µM
- TGI [5]: > 100 µM
- TGI [7]: > 100 µM
- TGI [8]: > 100 µM
- TGI [9]: > 100 µM

Structure (SMILES): Cc1ccccc1C(C#N)/C(=N/NC(=O)c1cc2ccccc2cc1O)C(=O)Nc1cccc(Cl)c1 (stereo not drawn)
- TGI [1]: > 100 µM
- TGI [3]: 65.3 µM
- TGI [4]: 87.7 µM
- TGI [5]: 27.4 µM
- TGI [6]: > 100 µM
- TGI [7]: > 100 µM
- TGI [8]: 76.1 µM
- TGI [9]: 18.1 µM

Structure (SMILES): c1ccc(-c2nc(Nc3ccc(-c4nc5ccccc5[nH]4)cc3)nc(N3CCOCC3)n2)cc1
- GI50 [1]: 1.09 µM
- TGI [1]: 2.62 µM
- GI50 [2]: 1.21 µM
- TGI [2]: 2.49 µM
- GI50 [10]: 1.93 µM
- TGI [10]: 5.53 µM
- GI50 [4]: 1.68 µM
- TGI [4]: 3.08 µM
- GI50 [5]: 1.69 µM
- TGI [5]: 3.15 µM
- GI50 [6]: 2.11 µM
- TGI [6]: 4.23 µM
- GI50 [7]: 0.627 µM
- TGI [7]: 2.17 µM
- GI50 [9]: 1.66 µM
- TGI [9]: 3.48 µM

Structure (SMILES): COc1n[n+]([O-])c(C)cc1[N+](=O)[O-]
- GI50 [1]: 20.2 µM
- TGI [1]: 46.3 µM
- GI50 [2]: 15.7 µM
- TGI [2]: 29.3 µM
- GI50 [3]: 12.1 µM
- TGI [3]: 24.8 µM
- GI50 [10]: 19.1 µM
- TGI [10]: 43.7 µM
- GI50 [4]: 16.1 µM
- TGI [4]: 30.5 µM
- GI50 [5]: 11.3 µM
- TGI [5]: 24.5 µM
- GI50 [7]: 15.7 µM
- TGI [7]: 39.6 µM
- GI50 [8]: 10.9 µM
- TGI [8]: 24.4 µM
- GI50 [9]: 10.7 µM
- TGI [9]: 23.7 µM

Structure (SMILES): O=C(O)Cc1cc(=O)oc2cc(O)c(Cl)cc12
- TGI [1]: > 100 µM
- TGI [3]: > 100 µM
- TGI [4]: > 100 µM
- TGI [5]: > 100 µM
- TGI [6]: > 100 µM
- TGI [7]: > 100 µM
- TGI [9]: > 100 µM

Structure (SMILES): COC(=O)c1c/c(=N\NC(=O)CC(=O)Nc2ccccc2Cl)c2ccccc2o1
- TGI [3]: > 100 µM
- TGI [4]: > 100 µM
- TGI [5]: > 100 µM
- TGI [6]: > 100 µM
- TGI [7]: > 100 µM
- TGI [8]: > 100 µM
- TGI [9]: > 100 µM

Structure (SMILES): CCCOc1ccc(/C=C/c2cc(OC)c(OC)c(OC)c2)cc1
- TGI [1]: > 22.6 µM
- TGI [3]: > 100 µM
- TGI [4]: > 72.9 µM
- TGI [5]: 0.467 µM
- TGI [7]: > 100 µM
- TGI [8]: 39.3 µM
- TGI [9]: > 100 µM

Structure (SMILES): N#Cc1nc(-c2cccc(Br)c2)cc(-c2ccc(Nc3nc(N4CCCCC4)nc(N4CCCCC4)n3)cc2)c1N
- GI50 [2]: 3.13 µM
- TGI [2]: 10.2 µM
- GI50 [10]: 3.33 µM
- TGI [10]: > 100 µM
- GI50 [5]: 1.76 µM
- TGI [5]: 3.18 µM
- GI50 [6]: 19.1 µM
- TGI [6]: > 100 µM
- GI50 [7]: 1.53 µM
- TGI [7]: 3.48 µM
- GI50 [8]: 2.98 µM
- TGI [8]: 29.8 µM
- GI50 [9]: 1.5 µM
- TGI [9]: 3.27 µM

Structure (SMILES): COC(=O)c1nc(-c2ccc(Cl)c(Cl)c2)nc2ccccc12
- TGI [1]: > 73.7 µM
- TGI [3]: > 100 µM
- TGI [5]: > 100 µM
- TGI [6]: 31.2 µM
- TGI [7]: > 100 µM
- TGI [8]: > 100 µM
- TGI [9]: > 100 µM

Structure (SMILES): CCCCCCN1C(=O)/C(=c2\sc3n(c2=O)C2C(NN=3)N(CC)C(=O)N2CC)c2ccccc21 (stereo not drawn)
- GI50 [1]: 0.706 µM
- TGI [1]: 2.37 µM
- GI50 [2]: 2.52 µM
- TGI [2]: > 50 µM
- GI50 [3]: 1.63 µM
- TGI [3]: > 50 µM
- GI50 [5]: 3.48 µM
- TGI [5]: > 50 µM
- GI50 [6]: 2.67 µM
- TGI [6]: > 50 µM
- GI50 [8]: 3.09 µM
- TGI [8]: > 50 µM
- GI50 [9]: 2.89 µM
- TGI [9]: > 50 µM

Structure (SMILES): CCNC(=O)C(O)C1(O)CCC2[C@@H]3CCC4=CC(=O)C=C[C@]4(C)C3[C@@H](O)C[C@@]21C (stereo partly drawn)
- TGI [3]: > 100 µM
- TGI [4]: > 100 µM
- TGI [6]: > 100 µM
- TGI [7]: > 100 µM
- TGI [8]: > 100 µM
- TGI [9]: > 100 µM

Structure (SMILES): N#CCCc1nc2ccc(Br)cc2c(=O)n1-c1ccc(O)c([N+](=O)[O-])c1
- TGI [1]: > 100 µM
- TGI [3]: 47.7 µM
- TGI [4]: 38.8 µM
- TGI [5]: 36.3 µM
- TGI [6]: 85.2 µM
- TGI [7]: 46.8 µM
- TGI [8]: 74.3 µM
- TGI [9]: 38.5 µM

Structure (SMILES): CCOC(=O)c1sc(=S)c2c(C(=O)c3ccccc3)c(C(=O)c3ccccc3)sc2c1C(=O)OCC
- GI50 [1]: 7.96 µM
- TGI [1]: 52.2 µM
- GI50 [2]: 4.07 µM
- TGI [2]: > 100 µM
- GI50 [3]: 5.24 µM
- TGI [3]: 85.7 µM
- GI50 [4]: 9.58 µM
- TGI [4]: > 100 µM
- GI50 [5]: 2.38 µM
- TGI [5]: 5.76 µM
- GI50 [6]: 37.4 µM
- TGI [6]: > 100 µM
- GI50 [7]: 4.25 µM
- TGI [7]: > 100 µM
- GI50 [8]: 3.45 µM
- TGI [8]: 25.7 µM
- GI50 [9]: 2.99 µM
- TGI [9]: 17.8 µM

Structure (SMILES): Clc1ccc(C2=Nc3ccccc3SC(c3ccc(Cl)c(Cl)c3)C2)c(Cl)c1 (stereo not drawn)
- TGI [1]: 37.4 µM
- TGI [3]: 30.7 µM
- TGI [4]: 36.6 µM
- TGI [5]: 32.3 µM
- TGI [6]: 52.1 µM
- TGI [7]: 18.9 µM
- TGI [8]: 41.1 µM
- TGI [9]: 29.4 µM

Structure (SMILES): O=[N+]([O-])c1ccc(Cc2nc3ccccc3s2)cc1
- TGI [1]: > 100 µM
- TGI [3]: > 100 µM
- TGI [4]: > 100 µM
- TGI [5]: > 100 µM
- TGI [6]: > 100 µM
- TGI [7]: > 100 µM
- TGI [8]: > 100 µM
- TGI [9]: > 100 µM

Structure (SMILES): CSC(=S)N(C)c1nc(=[N+](C)C)ss1
- TGI [1]: > 100 µM
- TGI [3]: > 100 µM
- TGI [4]: > 100 µM
- TGI [5]: > 100 µM
- TGI [6]: > 100 µM
- TGI [7]: > 100 µM
- TGI [8]: > 100 µM
- TGI [9]: > 100 µM

Structure (SMILES): O=S(=O)(O)C(F)(F)C(F)(F)C(F)(F)C(F)(F)F
- TGI [1]: > 100 µM
- TGI [3]: > 100 µM
- TGI [4]: > 100 µM
- TGI [5]: > 100 µM
- TGI [6]: > 100 µM
- TGI [7]: > 100 µM
- TGI [8]: > 100 µM
- TGI [9]: > 100 µM

Structure (SMILES): Cc1ccc2sc3cc(=O)cc(C)c-3nc2c1
- TGI [3]: > 100 µM
- TGI [4]: 52.4 µM
- TGI [5]: 38.4 µM
- TGI [6]: > 100 µM
- TGI [7]: > 100 µM
- TGI [8]: > 100 µM
- TGI [9]: 36 µM
